Measured values reported in patent US20240279205A1, “NOVEL BENZIMIDAZOLE DERIVATIVE” (Carna Biosciences, Inc., priority 2020, published 2024).
Where a name gives a salt, the structure may show the parent alone.

Tests used:
human STING (hSTING) = target: T1, human STING (hSTING) (Homo sapiens, UniProt Q86WV6); test: Inhibition test of intracellular human STING (hSTING) pathway using SEAP reporter cells (HEK-Blue ISG), stimulation with Compound 3; format: cell-based; set-up: hSTING inhibitory activity: scale not given here; conditions: Compound 3 10 nM stimulation, 21 hours
T1 construct: host or cells: HEK-Blue ISG cells (HEK293-derived SEAP reporter line)
Outline: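 IC50 derived by regressing inhibition rate against log compound concentration (0.1 to 10 μM final, added 1 h before agonist), with 0% and 100% set by wells without and with 10 nM Compound 3. SEAP colour reaction read after 21 h stimulation of HEK-Blue ISG reporter cells.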

[1] = test system: STING activation (IFN-β production in THP-1 cells); test: Human IFN-β production inhibition test by cGAMP stimulation in THP-1 cells; format: cell-based; set-up: IFN-β bioinhibitory activity: scale not given here; conditions: 2'3'-cGAMP transfection, 18 hours, IFN-β ELISA; for IC50: Homo sapiens, read-out: IFN-β bioinhibitory activity
Method: Human IFN-β production inhibition test by cGAMP stimulation
The inhibitory activity of test compounds against STING activation was evaluated by measuring the amount of IFN-β produced when human monocytic cell line THP-1 cells were stimulated with the endogenous ligand cGAMP.
After seeding THP-1 cells (ATCC) in a 96-well plate, PMA (Santa Cruz Biotechnology) adjusted to a concentration of 100 nM after addition was added, and incubated at 37° C. in a 5% CO2 incubator. It was cultured overnight (RPMI1640 medium containing 10% FBS, 50 U/mL penicillin/50 μg/mL streptomycin). A test compound solution adjusted to a final concentration of 0.001 to 1 μM was added to each well of this plate and cultured for 1 hour in a CO2 incubator (DMSO final concentration 0.1%). 0.12 μg/well of 2′3′-cGAMP (Invivogen, #tlrl-nacga23) was introduced into the cells by transfection using Lipofectamine2000 (Invitrogen) and cultured in a CO incubator for an additional 18 hours. After collecting the culture supernatant from each well, the amount of human IFN-β produced in the culture supernatant was measured by ELISA using R&D human IFN-β Duoset (R&D Systems).
Assuming that the human IFN-β production amount of the test compound-free and cGAMP-added group is 100%, and the human IFN-β production amount of the test compound-free and cGAMP-free group is 0%, the IC50 value was determined by regression analysis of the inhibitory rate determined from the amount of human IFN-β production at each compound concentration and the concentration of the test compound (logarithm).

T1 sequence (Q86WV6 whole entry H232R): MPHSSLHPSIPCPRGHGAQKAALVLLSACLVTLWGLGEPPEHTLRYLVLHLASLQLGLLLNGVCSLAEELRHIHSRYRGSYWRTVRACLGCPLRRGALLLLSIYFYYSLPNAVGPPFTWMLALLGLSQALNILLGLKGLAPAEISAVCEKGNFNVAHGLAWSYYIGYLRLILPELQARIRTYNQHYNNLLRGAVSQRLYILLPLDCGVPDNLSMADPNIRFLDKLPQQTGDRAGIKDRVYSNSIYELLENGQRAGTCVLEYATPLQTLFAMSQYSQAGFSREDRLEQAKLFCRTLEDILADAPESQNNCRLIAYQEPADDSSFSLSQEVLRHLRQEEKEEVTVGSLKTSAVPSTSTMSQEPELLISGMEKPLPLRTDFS

Structure (SMILES) | hSTING inhibitory activity (human STING (hSTING)) | IC50 [1] [nM] | IFN-β bioinhibitory activity [1] | IC50 (human STING (hSTING); read-out: hSTING inhibitory activity) [nM]
Cn1c(Nc2c[nH]c3ccc(Cl)nc23)nc2cc(Oc3ccccc3)ccc21 [Embodiment 45, N-(5-Chloro-1H-pyrrolo[3,2-b]pyridin-3-yl)-1-methyl-5-phenoxy-1H-benzo[d]imidazol-2-amine] | * * | 100 to 1000 | – | –
Cn1c(Nc2c[nH]c3ccc(Cl)nc23)nc2cc(C(F)(F)F)ccc21 [Embodiment 47, N-(5-Chloro-1H-pyrrolo[3,2-b]pyridin-3-yl)-1-methyl-5-(trifluoromethyl)-1H-benzo[d] imidazol-2-amine] | * * | – | * * | –
Cc1ccnc2c(Nc3nc4cc(Oc5ccccc5)ccc4[nH]3)c[nH]c12 [Embodiment 52, N-(7-methyl-1H-pyrrolo[3,2-b]pyridin-3-yl)-5-phenoxy-1H-benzo[d]imidazol-2-amine] | * * | 100 to 1000 | – | –
Cc1ccc2[nH]cc(Nc3nc4cc(Oc5ccccc5)ccc4[nH]3)c2n1 [Embodiment 53, N-(5-methyl-1H-pyrrolo[3,2-b]pyridin-3-yl)-5-phenoxy-1H-benzo[d]imidazol-2-amine] | * * | ≥ 1000 | – | –
c1ccc(Oc2ccc3[nH]c(Nc4c[nH]c5c(-c6ccccc6)ccnc45)nc3c2)cc1 [Embodiment 54, 5-phenoxy-N-(7-phenyl-1H-pyrrolo[3,2-b]pyridin-3-yl)-1H-benzo[d]imidazol-2-amine] | * * | ≥ 1000 | – | –
Cn1c(Nc2c[nH]c3ccc(Cl)cc23)nc2cc(C(F)(F)F)ccc21 [Embodiment 56, N-(5-chloro-1H-indol-3-yl)-1-methyl-5-(trifluoromethyl)-1H-benzo[d]imidazol-2-amine] | * * * | – | * * * | –
FC(F)(F)c1ccc2c(c1)nc(Nc1c[nH]c3ccc(Cl)cc13)n2C1CC1 [Embodiment 57, N-(5-chloro-1H-indol-3-yl)-1-cyclopropyl-5-(trifluoromethyl)-1H-benzo[d]imidazol-2-amine] | * * * | – | * * | –
Cn1c(Nc2c[nH]c3ccc(Cl)nc23)nc2ccc(Oc3ccc(F)cc3)cc21 [Embodiment 58, N-(5-chloro-1H-pyrrolo[3,2-b]pyridin-3-yl)-6-(4-fluorophenoxy)-1-methyl-1H-benzo[d]imidazol-2-amine] | * * | 100 to 1000 | – | –
C[Si](C)(C)C#Cc1ccc2[nH]c(Nc3c[nH]c4ccc(Br)nc34)nc2c1 [Embodiment 59, N-(5-bromo-1H-pyrrolo[3,2-b]pyridin-3-yl)-5-[(trimethylsilyl)ethynyl]-1H-benzo[d]imidazol-2-amine] | * * * | – | * * | –
Brc1ccc2[nH]cc(Nc3nc4cc(-c5ccccc5)ccc4[nH]3)c2n1 [Embodiment 60, N-(5-bromo-1H-pyrrolo[3,2-b]pyridin-3-yl)-5-phenyl-1H-benzo [d]imidazol-2-amine] | * * * | 100 to 1000 | – | 1000 to 10000
CN(C)c1ccc(Oc2ccc3[nH]c(Nc4c[nH]c5ccc(Br)nc45)nc3c2)cc1 [Embodiment 64, N-(5-bromo-1H-pyrrolo[3,2-b]pyridin-3-yl)-5-[4-(dimethylamino)phenoxy]-1H-benzo[d]imidazol-2-amine] | * * | 100 to 1000 | – | –
Fc1cnc2[nH]cc(Nc3nc4cc(Oc5ccccc5)ccc4[nH]3)c2c1 [Embodiment 72, N-(5-fluoro-1H-pyrrolo[2,3-b]pyridin-3-yl)-5-phenoxy-1H-benzo [d]imidazol-2-amine formate] | * * | 100 to 1000 | – | –
Clc1cnc2[nH]cc(Nc3nc4cc(Oc5ccccc5)ccc4[nH]3)c2c1 [Embodiment 73, N-(5-Chloro-1H-pyrrolo[2,3-b]pyridin-3-yl)-5-phenoxy-1H-benzo[d]imidazol-2-amine formate] | * * * | 100 to 1000 | – | –
